Laboratory results taken from patent EP0586592B1, “INSULIN AND AMYLIN CONTAINING COMPOSITION FOR THE TREATMENT OF INSULIN DEFICIENT MAMMALS” (AMYLIN PHARMACEUTICALS, INC., priority 1991, dated 2000).

Tested on: rat soleus muscle
Assay type: cell-based
Details: 4 h
Protocol: Male Harlan Sprague Dawley rats of approximately 200 g mass were used in order to maintain soleus muscle mass less than 40 mg. The animals were fasted for 4 hours prior to sacrifice by decapitation. The skin was stripped from the lower limb which was then pinned out on cork board. The tendo achilles was cut just above os […]. gastrocnemius reflected out from the posterior aspect of the tibia. M. soleus, a small 15-20 mm long, 0.5 mm thick flat muscle on the bone surface of m. gastrocnemius was then stripped clear and the perimysium cleaned off using fine scissors and forceps. M. soleus was then split into equal parts using a blade passed antero-posteriorly through the belly of the muscle to obtain a total of 4 muscle strips from each animal. […] Methods used to determine the nature and purity of rat and human amylin included quantitative amino acid analysis, gas phase amino acid sequencing, reverse phase HPLC and fast-atom-bombardment mass spectrometry. […] The concentration of human amylin present in the medium at the end of the incubation was determined by radioimmunoassay in surfactant-containing buffer. For both human and rat amylin, the actual mass added to the incubation medium was determined by quantitative amino-acid analysis. […] The remaining glycogen was redissolved in 1 mL water and 4 mL scintillation fluid and counted for ^14C. […]

EC50: 438 pM
SMILES: CC[C@H](C)[C@H](NC(=O)[C@H](C)NC(=O)CNC(=O)[C@H](Cc1ccccc1)NC(=O)[C@H](CC(N)=O)NC(=O)[C@H](CC(N)=O)NC(=O)[C@H](CO)NC(=O)[C@H](CO)NC(=O)[C@H](Cc1c[nH]cn1)NC(=O)[C@@H](NC(=O)[C@H](CC(C)C)NC(=O)[C@H](Cc1ccccc1)NC(=O)[C@H](CC(N)=O)NC(=O)[C@H](C)NC(=O)[C@H](CC(C)C)NC(=O)[C@H](CCCNC(=N)N)NC(=O)[C@H](CCC(N)=O)NC(=O)[C@@H](NC(=O)[C@H](C)NC(=O)[C@@H]1CSSC[C@H](NC(=O)[C@@H](N)CCCCN)C(=O)N[C@@H](CC(N)=O)C(=O)N[C@@H]([C@@H](C)O)C(=O)N[C@@H](C)C(=O)N[C@@H]([C@@H](C)O)C(=O)N1)[C@@H](C)O)C(C)C)C(=O)N[C@@H](CC(C)C)C(=O)N[C@@H](CO)C(=O)N[C@@H](CO)C(=O)N[C@H](C(=O)N[C@@H](CC(N)=O)C(=O)N[C@H](C(=O)NCC(=O)N[C@@H](CO)C(=O)N[C@@H](CC(N)=O)C(=O)N[C@H](C(=O)N[C@@H](Cc1ccc(O)cc1)C(N)=O)[C@@H](C)O)C(C)C)[C@@H](C)O [human amylin]
